# Data: patent US8426448B2, “1,5-diphenyl-pyrrolidin-2-one compounds as CB-1 ligands” (Eli Lilly and Company, priority 2008, dated 2013)
# Structures can show the parent of a compound that is named as a salt.
# What was measured:
# [1] = test system: Male NIH Swiss mice; test: Forced swim test (FST); assay type: in vivo; set-up: key to Dunett's Test (0.05) * against vehicle, # against Imipramine: * against vehicle; # against Imipramine; conditions: for minimum effective dose (MED) in forced swim test: Dunett's Test (0.05) statistically significant; for Seconds of immobility: last 4 min of 6 min swim, n = 8; for Dunett's Test (0.05) * against vehicle, # against Imipramine: immobility time
# Source text: The forced swim test is a well established animal model for depression, anxiety and avolition (lack of motivation)(Porsolt, et al. Nature (1977) 266, 730) (J. M. Witkin et al., Trends Pharmacol Sci. 2005 26:609-17). It can also be used as a model for the treatment of negative symptoms of schizophrenia.
# Male NIH Swiss mice (Harlan Sprague-Dawley) are housed 12 mice/cage for 7-10 days prior to testing. On the day of testing, mice weighing 25-30 g, are brought to the testing room at least 1 hr. prior to dosing. Mice are dosed (p.o.) at 6-8 min. intervals with either vehicle (1% CMC/0.5% SLS/0.08% povidone/0.05 antifoam for CB1 inverse agonists) or test compound and put it into a clean cage (4 mice/cage).
# To test, mice are placed individually in clear plastic cylinders (about 10 cm diameter×25 cm height) filled to 6 cm with water at 22-25° C. for six min. The duration of immobility during the last 4 min. is recorded. A mouse is regarded as immobile when floating motionless or making only those movements necessary to keep its head above the water.
# The immobility time (in seconds) is analyzed by ANOVA using Dunnett's test. The minimum effective dose (MED) is considered to be the lowest dose of test compound at which a statistically significant decrease in the immobility time is observed versus the vehicle control.
# [2] = Rat oral bioavailability; assay type: in vivo; conditions: Sprague-Dawley, plasma, fasted male SD rats, IV 0.25 mg/kg (20% MEOP/80% water), PO 1 mg/kg (1% NaCMC/0.5% SLS/0.05% antifoam), based on AUC0-∞
# Method: (§1) Cohorts of three or four 250-450 gram male Sprague-Dawley rats or approximately 10 kg Beagle dogs (female or male) are used. […] Dogs are administered i.v. by cannulated cephalic vein and blood collections are by jugular vein. Animals are first dosed at 0.25 mg/kg i.v. and blood samples (0.2 mL) are then collected using EDTA as an anticoagulant at 0.0830, 0.25, 0.50, 1, 2, 4, 8, 12, 24, 48, 72, 96, and 120 hours. Next after at least two days and after 18-24 hours fasting, the animals are dosed at 1.0 mg/kg by oral gavage. During the course of a study the total of blood (ml) collected is not to exceed 1% of total body weight in grams. Should larger blood volumes be required, the sampled blood volume is replace with heparinized whole blood from a donor animal. When using a cross-over study design, rats receive a volume of heparinized whole blood following the final sample of each study day approximately equal to that removed during study.
# (§2) Compound plasma concentrations are measured by LC/MS/MS assays. Data are then analyzed using standard non-compartmental pharmacokinetic analysis. Oral bioavailability is calculated as: (AUC0-infinity,oral/AUC0-infinity,i.v.)×(Dose,i.v./Dose,oral)×100%
# [3] = Dog oral bioavailability; assay type: in vivo; conditions: plasma; fasted male beagle dog; IV 0.25 mg/kg, PO 1 mg/kg; Mean±SD, n=3; based on AUC0-24hr
# Method: as §1, §2
# [4] = molecular target: T1, rCB-1 (Rattus norvegicus, UniProt P20272); test: rCB1-CHO antagonist mode SPA GTP-γ-35S binding assay; assay type: biochemical; conditions: antagonist mode vs methanandamide; read-out: rCB-1 SPA GTPγS CHO Membrane Antagonist Kb
# T1 construct: purchased Applied Cell Sciences, Rockville, Md; host or cells: CHO cell membranes
# T1 sequence (P20272 whole entry): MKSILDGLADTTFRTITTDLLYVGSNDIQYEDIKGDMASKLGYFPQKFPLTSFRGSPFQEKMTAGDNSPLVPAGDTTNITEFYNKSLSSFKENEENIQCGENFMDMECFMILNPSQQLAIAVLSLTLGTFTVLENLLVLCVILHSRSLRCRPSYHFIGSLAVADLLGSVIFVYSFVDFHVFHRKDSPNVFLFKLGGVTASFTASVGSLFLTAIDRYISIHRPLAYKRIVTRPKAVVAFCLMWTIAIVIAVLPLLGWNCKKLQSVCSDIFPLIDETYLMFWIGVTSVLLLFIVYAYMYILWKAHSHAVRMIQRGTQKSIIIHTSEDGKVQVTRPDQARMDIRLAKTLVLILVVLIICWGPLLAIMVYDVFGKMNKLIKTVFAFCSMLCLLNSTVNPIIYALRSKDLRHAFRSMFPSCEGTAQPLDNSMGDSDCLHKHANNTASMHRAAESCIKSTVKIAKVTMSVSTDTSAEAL
# Method: (§3) Compounds of the present invention may be tested for functional activity at the CB-1 and CB-2 receptors in both agonist and antagonist modes using SPA (Scintillation Proximity Assay) based GTP-γ-^35S binding assays. All assay components are prepared in assay buffer (20 mM HEPES, 100 mM NaCl, 5 mM MgCl2, pH 7.4) at room temperature. Semi-log dilutions of test compound are prepared in assay buffer containing BSA (0.125% final conc.) for the agonist mode assays. For the antagonist mode assays, test compounds are prepared in the same manner but also include an 80% efficacious dose of a full agonist (methanandamide). GTP-γ^35S binding for the antagonist assay may be measured in a 96 well format using a modification of an antibody capture technique previously described. (DeLapp, N W, et al. (1999) J Pharmacol Exp Ther 289:946-955.) The CB-2 receptor agonist activity may be measured using a similar method using hCB2-Sf9 membranes. The CB-1 receptor agonist activity may be measured using a whole membrane capture technique using hCB1-CHO membranes. All incubations are done at room temperature.
# (§4) hCB1-CHO or rCB1-CHO membranes (Applied Cell Sciences, Rockville, Md.) and GDP (1 μM final) are added to ice cold assay buffer and homogenized. […] Plates are then centrifuged at 700×g for 10 min. and the radioactivity counted.
# (§5) Data are analyzed as follows: Background is subtracted from all wells. […] Percent antagonist inhibition is calculated by first normalizing the data to the signal generated by a saturating concentration of the full agonist (methanandamide). Then the data are analyzed using a 4-parameter logistic reduced fit (Activity Base™ and XLFit3™ from IDBS, Emeryville, Calif.). Kb values are determined using a modification of the Cheng-Prusoff relationship: Kb=IC50/(1+[agonist]/EC50), where “IC50” is determined from a four parameter fit of displacement curves, “[agonist]” is the agonist challenge concentration (nM), and “EC50” is determined from a four parameter fit of a full agonist concentration response curve (Cheng and Prusoff 1973). […]
# [5] = molecular target: T2, hCB-2 (Homo sapiens, UniProt P34972); test: hCB2-Sf9 antagonist mode SPA GTP-γ-35S binding assay; assay type: biochemical; conditions: antagonist mode vs methanandamide; read-out: hCB-2 SPA GTPγS Sf9 Membrane Antagonist Kb
# T2 construct: purchased Perkin Elmer, Boston, Mass; host or cells: Sf9 cell membranes
# T2 sequence (P34972 whole entry): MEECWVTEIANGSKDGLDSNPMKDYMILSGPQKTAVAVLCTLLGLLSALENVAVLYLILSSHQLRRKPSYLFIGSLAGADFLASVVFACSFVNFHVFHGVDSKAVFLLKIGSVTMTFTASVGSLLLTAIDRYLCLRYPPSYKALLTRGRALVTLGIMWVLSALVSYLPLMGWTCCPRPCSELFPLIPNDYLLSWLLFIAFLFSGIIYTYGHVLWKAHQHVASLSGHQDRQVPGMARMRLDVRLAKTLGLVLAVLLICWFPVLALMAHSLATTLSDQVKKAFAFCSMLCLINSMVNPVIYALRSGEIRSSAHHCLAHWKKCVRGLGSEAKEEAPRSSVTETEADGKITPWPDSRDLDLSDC
# Method: (§6) Compounds of the present invention may be tested for functional activity at the CB-1 and CB-2 receptors in both agonist and antagonist modes using SPA (Scintillation Proximity Assay) based GTP-γ-^35S binding assays. All assay components are prepared in assay buffer (20 mM HEPES, 100 mM NaCl, 5 mM MgCl2, pH 7.4) at room temperature. Semi-log dilutions of test compound are prepared in assay buffer containing BSA (0.125% final conc.) for the agonist mode assays. For the antagonist mode assays, test compounds are prepared in the same manner but also include an 80% efficacious dose of a full agonist (methanandamide). GTP-γ^35S binding for the antagonist assay may be measured in a 96 well format using a modification of an antibody capture technique previously described. (DeLapp, N W, et al. (1999) J Pharmacol Exp Ther 289:946-955.) The CB-2 receptor agonist activity may be measured using a similar method using hCB2-Sf9 membranes. The CB-1 receptor agonist activity may be measured using a whole membrane capture technique using hCB1-CHO membranes. All incubations are done at room temperature. […]
# (§7) Data are analyzed as follows: Background is subtracted from all wells. […] Percent antagonist inhibition is calculated by first normalizing the data to the signal generated by a saturating concentration of the full agonist (methanandamide). Then the data are analyzed using a 4-parameter logistic reduced fit (Activity Base™ and XLFit3™ from IDBS, Emeryville, Calif.). Kb values are determined using a modification of the Cheng-Prusoff relationship: Kb=IC50/(1+[agonist]/EC50), where “IC50” is determined from a four parameter fit of displacement curves, “[agonist]” is the agonist challenge concentration (nM), and “EC50” is determined from a four parameter fit of a full agonist concentration response curve (Cheng and Prusoff 1973). Mean Kb values are calculated as a mean of at least three independent determinations±standard error of the mean (SEM). […]
# [6] = molecular target: T2, hCB-2; test: hCB2-Sf9 agonist mode SPA GTP-γ-35S binding assay; assay type: biochemical; conditions: read-out: hCB-2 SPA GTPγS Sf9 Membrane Agonist Relative EC50
# Method: as §6
# Data are analyzed as follows: Background is subtracted from all wells. […] Percent antagonist inhibition is calculated by first normalizing the data to the signal generated by a saturating concentration of the full agonist (methanandamide). […]
# [7] = molecular target: T3, hCB-1 (Homo sapiens, UniProt P21554); test: hCB1-Sf9 antagonist mode SPA GTP-γ-35S binding assay; assay type: biochemical; set-up: purchased Applied Cell Sciences, Rockville, Md; conditions: Sf9 membrane 22.7 μg; antagonist mode vs methanandamide; read-out: hCB-1 SPA GTPγS Sf9 Membrane 22.7 μg Antagonist Kb
# T3 sequence (P21554 whole entry): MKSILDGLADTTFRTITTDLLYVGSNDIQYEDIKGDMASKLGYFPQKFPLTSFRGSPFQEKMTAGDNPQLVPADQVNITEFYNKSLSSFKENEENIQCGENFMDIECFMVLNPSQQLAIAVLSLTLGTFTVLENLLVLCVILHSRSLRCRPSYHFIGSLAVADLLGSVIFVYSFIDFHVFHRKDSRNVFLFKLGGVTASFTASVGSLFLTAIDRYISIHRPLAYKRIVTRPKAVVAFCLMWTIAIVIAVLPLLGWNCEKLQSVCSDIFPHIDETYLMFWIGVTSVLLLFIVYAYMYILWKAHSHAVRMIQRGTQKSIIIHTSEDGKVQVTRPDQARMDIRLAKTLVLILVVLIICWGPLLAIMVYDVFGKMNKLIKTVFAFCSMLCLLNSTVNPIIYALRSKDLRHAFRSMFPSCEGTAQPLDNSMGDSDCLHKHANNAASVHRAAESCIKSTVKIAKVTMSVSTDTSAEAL
# Method: as §6, §7
# [8] = molecular target: T3, hCB-1; test: hCB1-CHO antagonist mode SPA GTP-γ-35S binding assay; assay type: biochemical; set-up: purchased Applied Cell Sciences, Rockville, Md; host or cells: CHO cell membranes; conditions: antagonist mode vs methanandamide; read-out: hCB-1 SPA GTPγS CHO Membrane Antagonist Kb
# Method: as §3, §4, §5
# [9] = molecular target: T3, hCB-1; test: hCB1-CHO agonist mode SPA GTP-γ-35S binding assay; assay type: biochemical; set-up: purchased Applied Cell Sciences, Rockville, Md; host or cells: CHO cell membranes; conditions: inverse agonism, read-out: hCB-1 SPA GTPγS CHO Membrane Agonist Relative EC50 inverse
# Method: as §3
# hCB1-CHO membrane, GDP (1 μM final conc.), and saponin (10 μg/mL final conc., Sigma, St Louis, Mo.) are combined and prepared on ice as for the antagonist assays, above. Diluted test compounds, GTP-γ-^35S ([…] final conc.) and membranes are combined in the assay plate and incubated for 30 min. Then 1 mg/well Wheatgerm Agglutinin SPA beads (GE Healthcare, Piscataway, N.J.) are added, plates are sealed and vortexed and incubate for 1 hr. before spinning and counting in the same fashion as for the antagonist assays, above.
# Data are analyzed as follows: Background is subtracted from all wells. Percent agonist efficacy is determine by normalizing agonist/inverse agonist dose response data to the response obtained for a full agonist (methanandamide). Percent antagonist inhibition is calculated by first normalizing the data to the signal generated by a saturating concentration of the full agonist (methanandamide). Then the data are analyzed using a 4-parameter logistic reduced fit (Activity Base™ and XLFit3™ from IDBS, Emeryville, Calif.). Kb values are determined using a modification of the Cheng-Prusoff relationship: Kb=IC50/(1+[agonist]/EC50), where “IC50” is determined from a four parameter fit of displacement curves, “[agonist]” is the agonist challenge concentration (nM), and “EC50” is determined from a four parameter fit of a full agonist concentration response curve (Cheng and Prusoff 1973). Mean Kb values are calculated as a mean of at least three independent determinations±standard error of the mean (SEM). […]
smiles,measurement,setting,value
"CC(C)(N[C@@H]1C[C@H](c2cccc(OC(F)(F)F)c2)N(c2ccc(C(F)(F)F)cc2)C1=O)c1cccc(C(F)(F)F)n1 [Example 11, (3R,5R)-3-[1-Methyl-1-(6-trifluoromethyl-pyridin-2-yl)-ethylamino]-5-(3-trifluoromethoxy-phenyl)-1-(4-trifluoromethyl-phenyl)-pyrrolidin-2-one]",minimum effective dose (MED) in forced swim test,"[1]; mice, p.o.",3 mg/kg
"CC(C)(N[C@@H]1C[C@H](c2cccc(OC(F)(F)F)c2)N(c2ccc(C#N)cc2)C1=O)c1cccc(C(F)(F)F)n1 [Example 27, 4-[(3R,5R)-3-[1-Methyl-1-(6-trifluoromethyl-pyridin-2-yl)-ethylamino]-2-oxo-5-(3-trifluoromethoxy-phenyl)-pyrrolidin-1-yl]-benzonitrile]",Seconds of immobility,"[1]; 1 mg/Kg p.o., mice",170 s
same,"Dunett's Test (0.05) * against vehicle, # against Imipramine",[1]; 1 mg/Kg,#
same,Seconds of immobility,"[1]; 3 mg/Kg p.o., mice",128 s
same,"Dunett's Test (0.05) * against vehicle, # against Imipramine",[1]; 3 mg/Kg,*
same,Seconds of immobility,"[1]; 10 mg/Kg p.o., mice",80 s
same,"Dunett's Test (0.05) * against vehicle, # against Imipramine",[1]; 10 mg/Kg,*
same,duration of immobility in forced swim test,"[1]; mice, p.o., result in words",significantly reduce the duration of mobility in a dose dependent manner
"CC(C)(N[C@@H]1C[C@H](c2cccc(OC(F)(F)F)c2)N(c2ccc(C#N)cc2)C1=O)c1cccc(C(F)(F)F)n1 [Example 27HCl Salt, 4-[(3R,5R)-3-[1-methyl-1-(6-trifluoromethyl-pyridin-2-yl)-ethylamino]-2-oxo-5-(3-trifluoromethoxy-phenyl)-pyrrolidin-1-yl]-benzonitrile hydrochloride]",bioavailability,[2],58 ± 8.6%
same,bioavailability,[3],33 ± 13%
"CC(C)(N[C@@H]1C[C@H](c2cccc(C(F)(F)F)c2)N(c2ccc(OC(F)(F)F)cc2)C1=O)c1cccc(C(F)(F)F)n1 [Example 28, (3R,5R)-3-[1-Methyl-1-(6-trifluoromethyl-pyridin-2-yl)-ethylamino]-5-(3-trifluoromethyl-phenyl)-1-(4-trifluoromethoxy-phenyl)-pyrrolidin-2-one]",Kb,[4],0.756 nM
same,Kb,[5],> 11900 nM
same,EC50,[6],> 100000 nM
same,minimum effective dose (MED) in forced swim test,"[1]; mice, p.o.",10 mg/kg
same,Kb,[7],1.76 nM
same,Kb,[8],2.37 nM
same,EC50,[9],3.02 nM
"CN(C)CCCN1c2ccccc2CCc2ccccc21 [Imipramine, reference compound]","Dunett's Test (0.05) * against vehicle, # against Imipramine",[1]; 15 mg/Kg,*
same,Seconds of immobility,"[1]; 15 mg/Kg, mice",80 s
